{"source": "patent US5695952A", "about": "“Method for producing [Leu^13 ]motilin” (Kyowa Hakko Kogyo Co., Ltd., priority 1986, dated 1997)", "origin": "cited, not measured here", "details": "M. Fujino et al., Chem. Pharm. Bull., 26, 101 (1978)", "data": [{"molecule": "CC[C@H](C)[C@H](NC(=O)[C@@H]1CCCN1C(=O)[C@@H](NC(=O)[C@@H](N)Cc1ccccc1)C(C)C)C(=O)N[C@@H](Cc1ccccc1)C(=O)N[C@H](C(=O)N[C@@H](Cc1ccc(O)cc1)C(=O)NCC(=O)N[C@@H](CCC(=O)O)C(=O)N[C@@H](CC(C)C)C(=O)N[C@@H](CCC(N)=O)C(=O)N[C@@H](CCCNC(=N)N)C(=O)N[C@@H](CCSC)C(=O)N[C@@H](CCC(N)=O)C(=O)N[C@@H](CCC(=O)O)C(=O)N[C@@H](CCCCN)C(=O)N[C@@H](CCC(=O)O)C(=O)N[C@@H](CCCNC(=N)N)C(=O)N[C@@H](CC(N)=O)C(=O)N[C@@H](CCCCN)C(=O)NCC(=O)N[C@@H](CCC(N)=O)C(=O)O)[C@@H](C)O", "note": "[motilin]", "values": [{"measurement": "motilin activity after oxidation of Met to the sulfoxide form", "result": "decreased motilin activity"}]}]}
